Test results as given in patent US8101774B2, “Ester derivatives and medicinal use thereof” (Japan Tobacco Inc., priority 2004, dated 2012).

Target: T1, Microsomal triglyceride transfer protein (MTP) from human small intestine microsome (Homo sapiens, UniProt P55157)
T1 construct: Human small intestine microsome was dialyzed against 10 mM phosphate buffer; tissue Tissue Transforming Technologies, Inc; host or cells: human small intestine microsome
Assay: Inhibition test of interliposomal triglyceride (TG) transfer activity by MTP
Assay type: biochemical
Details: purified MTP from human small intestine microsome, 37° C., 1.5 hours
Description: Microsomal triglyceride transfer protein (MTP) from human small intestine microsome (manufactured by Tissue Transforming Technologies, Inc.) was purified in such a way described below. Human small intestine microsome was dialyzed against 10 mM phosphate buffer (300 mL, pH 6.8) twice for about 2 hours and once for further not less than 12 hours, at about 4° C. After dialysis, the mixture was centrifuged at 4° C. and 15,000×g for 5 minutes and then the supernatant was recovered. The previously recovered supernatant was purified by column chromatography on diethylaminoethyl (DEAE) Sepharose using FPLC (Fast Performance Liquid Chromatography) system, and the purified MTP was used for the test as described below.
Small unilamellar-vesicle (SUV) liposome (hereinafter described as donor, containing 0.25% (mol/mol) triolein and 5% (mol/mol) cardiolipin) constituted by triolein labeled with ^14C and non-labeled SUV liposome (hereinafter described as acceptor, containing […] triolein) were prepared in such a way described below.
Firstly, in order to prepare the donor, there were volatilized under a stream of nitrogen gas a phosphatidylcholine solution containing phosphatidylcholine labeled with ^3H, a cardiolipin solution, and a triolein solution containing triolein labeled with ^14C (each solution had been already dissolved in an appropriate organic solvent), or in order to prepare the acceptor, there were volatilized under nitrogen flow a phosphatidylcholine solution containing phosphatidylcholine labeled with ^3H and a cardiolipin solution (each solution had been already dissolved in an appropriate organic solvent). An appropriate amount of a reaction buffer (15 mM Tris-HCl buffer containing 1 mM EDTA.Na2, 40 mM NaCl, and 0.5% (w/v) bovine serum albumin, pH 7.4) was added thereto to be emulsified. The emulsions were treated with ultrasonication under ice-cooling and centrifuged at 4° C. and 159,000×g for 2 hours. Each of the resulting supernatant was used for donor or acceptor.
Each radioactivity in the acceptor and the donor was measured by liquid scintillation counter, and a mixed solution of the acceptor and the donor was prepared with a reaction buffer so as to be a donor-derived radioactivity of 16,000 dpm/400 μL and a acceptor-derived radioactivity of 4,000 dpm/[…]. 400 μL of the mixed solution of the donor and the acceptor, 45 μL of the reaction buffer, 50 μL of MTP (20 μg/mL), and 5 μL of a sample dissolved in DMSO (dimethyl sulfoxide) or 5 μL of DMSO was mixed (total amount: 500 μL). The mixture was incubated at 37° C. for 1.5 hours. After completion of the incubation, 1.25 mL of a suspension of DEAE cellulose (66.7% (v/v)) in 15 mM Tris-HCl buffer (pH 7.4) containing 1 mM EDTA.Na2 was added to the above solution. The mixture was centrifuged to separate the donor (adsorbed on the DEAE cellulose to precipitate) and the acceptor (the supernatant). The radioactivity in the acceptor was measured by liquid scintillation counter. The value obtained by subtracting the radioactivity in a blank group from the radioactivity in the acceptor of a DMSO group was determined as MTP-mediated TG transfer activity, and it was compared with the value obtained by subtracting the radioactivity in the blank group from the radioactivity in a sample group. Here, the blank was prepared by adding 10 mM phosphate buffer (pH 6.8) containing 250 mM NaCl in place of MTP. Inhibition rate (%) was calculated from values obtained according to the following equation. Inhibition rate(%)=(1 minus((radioactivity of sample group minus radioactivity of blank group)/(radioactivity of DMSO group minus radioactivity of blank group)))×100.
50% Inhibition rate (IC50) was determined on the basis of the above equation.

T1 sequence (P55157 19-894): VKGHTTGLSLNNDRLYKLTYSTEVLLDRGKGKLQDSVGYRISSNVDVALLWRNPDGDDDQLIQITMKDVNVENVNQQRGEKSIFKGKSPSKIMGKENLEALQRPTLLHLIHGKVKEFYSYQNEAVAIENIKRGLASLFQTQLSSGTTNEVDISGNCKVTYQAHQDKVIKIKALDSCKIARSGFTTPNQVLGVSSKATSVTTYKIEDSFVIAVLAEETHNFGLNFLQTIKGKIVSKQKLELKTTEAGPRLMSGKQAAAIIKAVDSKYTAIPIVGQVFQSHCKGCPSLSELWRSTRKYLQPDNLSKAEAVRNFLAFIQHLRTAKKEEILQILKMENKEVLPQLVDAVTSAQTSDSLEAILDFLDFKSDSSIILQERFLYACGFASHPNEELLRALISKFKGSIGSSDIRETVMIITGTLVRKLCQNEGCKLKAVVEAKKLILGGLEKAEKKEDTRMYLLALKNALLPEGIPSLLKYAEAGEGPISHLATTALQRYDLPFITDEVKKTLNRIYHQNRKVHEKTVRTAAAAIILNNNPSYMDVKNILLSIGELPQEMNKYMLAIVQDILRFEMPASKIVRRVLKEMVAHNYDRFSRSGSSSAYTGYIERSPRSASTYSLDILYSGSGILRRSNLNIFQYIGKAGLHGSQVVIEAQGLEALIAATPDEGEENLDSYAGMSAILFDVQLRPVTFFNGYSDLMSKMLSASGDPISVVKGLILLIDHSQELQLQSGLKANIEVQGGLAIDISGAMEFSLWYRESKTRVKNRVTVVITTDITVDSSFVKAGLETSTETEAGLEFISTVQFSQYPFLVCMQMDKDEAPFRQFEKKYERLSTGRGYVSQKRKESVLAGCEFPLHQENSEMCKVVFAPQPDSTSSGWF
T1 sequence (P07237 18-508 partner): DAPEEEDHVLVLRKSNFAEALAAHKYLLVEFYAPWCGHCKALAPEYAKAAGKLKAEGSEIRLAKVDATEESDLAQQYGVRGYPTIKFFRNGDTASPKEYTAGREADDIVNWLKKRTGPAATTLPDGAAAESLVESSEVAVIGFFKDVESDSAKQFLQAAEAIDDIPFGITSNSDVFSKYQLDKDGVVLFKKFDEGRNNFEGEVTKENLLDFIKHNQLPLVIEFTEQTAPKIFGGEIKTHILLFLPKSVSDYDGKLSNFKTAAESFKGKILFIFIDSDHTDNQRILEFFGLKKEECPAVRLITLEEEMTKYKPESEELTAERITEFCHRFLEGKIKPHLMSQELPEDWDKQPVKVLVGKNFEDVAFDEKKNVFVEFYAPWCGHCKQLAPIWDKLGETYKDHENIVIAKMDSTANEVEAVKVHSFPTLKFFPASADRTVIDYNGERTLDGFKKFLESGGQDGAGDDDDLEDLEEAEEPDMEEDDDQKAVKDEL

First: COC(=O)c1ccc(OC(=O)CCCc2ccc(NC(=O)c3ccccc3-c3ccc(C(F)(F)F)cc3)c(C(=O)N(C)C)c2)cc1Cl [Compound 1-18, 2-chloro-4-(4-{3-dimethylcarbamoyl-4-[(4′-trifluoromethylbiphenyl-2-carbonyl)amino]phenyl}butyryloxy)benzoic acid methyl ester]
Second: COC(=O)c1ccc(OC(=O)CCCc2ccc(NC(=O)c3ccccc3-c3ccc(C(F)(F)F)cc3)c(C(=O)N(C)C)c2)c(C(F)(F)F)c1 [Compound 1-20, 4-(4-{3-dimethylcarbamoyl-4-[(4′-trifluoromethylbiphenyl-2-carbonyl)amino]phenyl}butyryloxy)-3-trifluoromethylbenzoic acid methyl ester]
The IC50 of the first is lower: under 10 nM for the first, 10 to 100 nM for the second. The first is the more potent here.

`CN(C)C(=O)c1cc(CCCC(=O)Oc2ccc(C(=O)OCc3cccs3)cc2)ccc1NC(=O)c1ccccc1-c1ccc(C(F)(F)F)cc1` [Compound 1-98, 4-[4-(3-dimethylcarbamoyl-4-{(4′-trifluoromethylbiphenyl-2-carbonyl)amino}phenyl)butyryloxy]benzoic acid thiophen-2-ylmethyl ester] and `CN(C)C(=O)c1cc(CCCC(=O)Oc2ccc(C(=O)OCc3ccsc3)cc2)ccc1NC(=O)c1ccccc1-c1ccc(C(F)(F)F)cc1` [Compound 1-99, 4-[4-(3-dimethylcarbamoyl-4-{(4′-trifluoromethylbiphenyl-2-carbonyl)amino}phenyl)butyryloxy]benzoic acid thiophen-3-ylmethyl ester] cannot be ordered by IC50: under 10 nM for the first, under 10 nM for the second.

`COc1cc(C(=O)OC(C)C)cc(OC)c1OC(=O)CCCc1ccc(NC(=O)c2ccc(C)nc2-c2ccc(C(F)(F)F)cc2)c(C(=O)N(C)C)c1` [Compound 1-44, 4-[4-(3-dimethylcarbamoyl-4-{[6-methyl-2-(4-trifluoromethylphenyl)pyridine-3-carbonyl]amino}phenyl)butyryloxy]-3,5-dimethoxybenzoic acid isopropyl ester] and `COC(=O)c1cc(C)c(OC(=O)CCCc2ccc(NC(=O)c3ccc(C)nc3-c3ccc(C(F)(F)F)cc3)c(C(=O)N(C)C)c2)c(C)c1` [Compound 1-65, 4-[4-(3-dimethylcarbamoyl-4-{[6-methyl-2-(4-trifluoromethylphenyl)pyridine-3-carbonyl]amino}phenyl)butyryloxy]-3,5-dimethylbenzoic acid methyl ester] cannot be ordered by IC50: under 10 nM for the first, under 10 nM for the second.

`CN(C)C(=O)c1cc(CCCC(=O)Oc2ccc(C(=O)OCc3cccnc3)cc2)ccc1NC(=O)c1ccccc1-c1ccc(C(F)(F)F)cc1` [Compound 1-83, 4-[4-(3-dimethylcarbamoyl-4-{(4′-trifluoromethylbiphenyl-2-carbonyl)amino}phenyl)butyryloxy]benzoic acid pyridin-3-ylmethyl ester] and `CN(C)C(=O)c1cc(CCCC(=O)Oc2ccc(C(=O)OCc3ccccn3)cc2)ccc1NC(=O)c1ccccc1-c1ccc(C(F)(F)F)cc1` [Compound 1-82, 4-[4-(3-dimethylcarbamoyl-4-{(4′-trifluoromethylbiphenyl-2-carbonyl)amino}phenyl)butyryloxy]benzoic acid pyridin-2-ylmethyl ester] cannot be ordered by IC50: under 10 nM for the first, under 10 nM for the second.

First: COC(=O)c1ccc(OC(=O)C2CCN(c3ccc(NC(=O)c4ccccc4-c4ccc(C(F)(F)F)cc4)c(C(=O)N(C)C)c3)CC2)cc1 [Compound 3-1, 1-{3-dimethylcarbamoyl-4-[(4′-trifluoromethylbiphenyl-2-carbonyl)amino]phenyl}piperidine-4-carboxylic acid 4-methoxycarbonylphenyl ester]
Second: CC(=O)N1CCC(OC(=O)c2ccc(OC(=O)CCCc3ccc(NC(=O)c4ccccc4-c4ccc(C(F)(F)F)cc4)c(C(=O)N(C)C)c3)cc2)CC1 [Compound 1-109, 4-[4-(3-dimethylcarbamoyl-4-{(4′-trifluoromethylbiphenyl-2-carbonyl)amino}phenyl)butyryloxy]benzoic acid 1-acetylpiperidin-4-yl ester]
The IC50 of the first is higher: 10 to 100 nM for the first, under 10 nM for the second. The second is the more potent here.

`COC(=O)c1cc(C)c(OC(=O)CCCc2ccc(NC(=O)c3ccc(C)nc3-c3ccc(C(F)(F)F)cc3)c(C(=O)N(C)C)c2)c(Cl)c1` [Compound 1-35, 3-chloro-4-[4-(3-dimethylcarbamoyl-4-{[6-methyl-2-(4-trifluoromethylphenyl)pyridine-3-carbonyl]amino}phenyl)butyryloxy]-5-methylbenzoic acid methyl ester] and `COC(=O)c1cc(C)c(OC(=O)CCCc2ccc(NC(=O)c3ccc(C)nc3-c3ccc(C(F)(F)F)cc3)c(C(=O)N(C)C)c2)c(F)c1` [Compound 1-41, 4-[4-(3-dimethylcarbamoyl-4-{[6-methyl-2-(4-trifluoromethylphenyl)pyridine-3-carbonyl]amino}phenyl)butyryloxy]-3-fluoro-5-methylbenzoic acid methyl ester] cannot be ordered by IC50: under 10 nM for the first, under 10 nM for the second.

`COc1ccc(COC(=O)c2ccc(OC(=O)CCCc3ccc(NC(=O)c4ccccc4-c4ccc(C(F)(F)F)cc4)c(C(=O)N(C)C)c3)cc2)cc1` [Compound 1-96, 4-[4-(3-dimethylcarbamoyl-4-{(4′-trifluoromethylbiphenyl-2-carbonyl)amino}phenyl)butyryloxy]benzoic acid 4-methoxybenzyl ester] and `CN(C)C(=O)c1cc(CCCC(=O)Oc2ccc(C(=O)OCCCOCc3ccccc3)cc2)ccc1NC(=O)c1ccccc1-c1ccc(C(F)(F)F)cc1` [Compound 1-90, 4-[4-(3-dimethylcarbamoyl-4-{(4′-trifluoromethylbiphenyl-2-carbonyl)amino}phenyl)butyryloxy]benzoic acid 3-benzyloxypropyl ester] cannot be ordered by IC50: under 10 nM for the first, under 10 nM for the second.

`CC(C)OC(=O)COC(=O)c1ccc(OC(=O)CCCc2ccc(NC(=O)c3ccccc3-c3ccc(C(F)(F)F)cc3)c(C(=O)N(C)C)c2)cc1` [Compound 1-102] and `CCC(=O)c1ccc(OC(=O)CCCc2ccc(NC(=O)c3ccccc3-c3ccc(C(F)(F)F)cc3)c(C(=O)N(C)C)c2)cc1` [Compound 1-88, 4-(3-dimethylcarbamoyl-4-{(4′-trifluoromethylbiphenyl-2-carbonyl)amino}phenyl)butyric acid 4-propionylphenyl ester] cannot be ordered by IC50: under 10 nM for the first, under 10 nM for the second.

First: COC(=O)c1ccc(OC(=O)CCCc2ccc(NC(=O)c3ccc(C)nc3-c3ccc(C(F)(F)F)cc3)c(C(=O)N(C)C)c2)cn1 [Compound 1-32, 5-[4-(3-dimethylcarbamoyl-4-{[6-methyl-2-(4-trifluoromethylphenyl)pyridine-3-carbonyl]amino}phenyl)butyryloxy]pyridine-2-carboxylic acid methyl ester]
Second: COC(=O)c1ccc(-c2nc(C)ccc2C(=O)Nc2ccc(CCCC(=O)Oc3c(Cl)cc(C(=O)OC)cc3OC)cc2C(=O)N(C)C)cc1 [Compound 4-4, 3-chloro-4-[4-(3-dimethylcarbamoyl-4-{[2-(4-methoxycarbonylphenyl)-6-methylpyridine-3-carbonyl]amino}phenyl)butyryloxy]-5-methoxybenzoic acid methyl ester]
The IC50 of the first is higher: 100 to 1000 nM for the first, under 10 nM for the second. The second is the more potent here.

`CN(C)C(=O)c1cc(CCCC(=O)Oc2ccc(-c3nnn(CC(=O)OCc4ccccc4)n3)cc2)ccc1NC(=O)c1ccccc1-c1ccc(C(F)(F)F)cc1` [Compound 1-104, 4-(3-dimethylcarbamoyl-4-{(4′-trifluoromethylbiphenyl-2-carbonyl)amino}phenyl)butyric acid 4-(2-benzyloxycarbonylmethyl-2H-tetrazol-5-yl)phenyl ester] and `CC(C)n1nnc(-c2ccc(OC(=O)CCCc3ccc(NC(=O)c4ccccc4-c4ccc(C(F)(F)F)cc4)c(C(=O)N(C)C)c3)cc2)n1` [Compound 1-115, 4-(3-dimethylcarbamoyl-4-{(4′-trifluoromethylbiphenyl-2-carbonyl)amino}phenyl)butyric acid 4-(2-isopropyl-2H-tetrazol-5-yl)phenyl ester] cannot be ordered by IC50: under 10 nM for the first, under 10 nM for the second.
